# Source: patent US6908944B2, “Use of 6-dimethylaminomethyl-1-phenyl-cyclohexane compounds for treatment of urinary incontinence” (Gruenenthal GmbH, priority 2000, dated 2005)
# Tested on: spontaneous contractions of the bladder
# Experiment: Cystometry on anaesthetized naive rats (suppression of rhythmic spontaneous bladder contractions)
# Format: in vivo, rat
# Conditions: anaesthetized ventilated naive female rats; i.v., cumulative administration; mean of 3 experiments
# Method: The cystometric investigation of naive female rats was carried out by the method of Kimura et al. (Kimura et al., 1996, Int. J. Urol. 3:218-227). The abdomen of anaesthetized ventilated rats is opened up and the ureter is tied off. The urine is drained from the kidneys. A catheter is inserted into the bladder and fixed. […] After stable starting values are reached, the test substance is administered i.v. in a cumulative manner. An influence on bladder function manifests itself via suppression of spontaneous contractions. The absence of contractions over a period of 10 min is the parameter for the suppression.
# A suppression of spontaneous contractions in rats was measurable with all the substances tested.
row,Structure (SMILES),Lowest dose (mean of the lowest dose at which for the first time contractions are absent over a period of 10 min)
1,"CN(C)C[C@@H]1CCCC[C@H]1c1cccc(O)c1.Cl [Compound 20, (−)-(1R,2R)-3-(2-Dimethylaminomethyl-cyclohexyl)-phenol, hydrochloride]",0.5 (n = 3) mg/kg
2,"CN(C)C[C@H]1CCCC[C@]1(F)c1cccc(O)c1.Cl [Compound 18, (+)-(1R,2R)-3-(2-Dimethylaminomethyl-1-fluoro-cyclohexyl)-phenol, hydrochloride]",0.2 (n = 3) mg/kg
3,"COc1cccc(C2(O)CCCCC2CN(C)C)c1 (racemic) [Compound 23, rac-Tramadol, reference compound]",5.3 (n = 3) mg/kg
4,"CN(C)C[C@H]1CCCC[C@@H]1c1cccc(O)c1.Cl [Compound 19, (+)-(1S,2S)-3-(2-Dimethylaminomethyl-cyclohexyl)-phenol, hydrochloride]",0.1 (n = 3) mg/kg
